We go through one molecule from US7964191B2, “Compositions and methods for the treatment of ophthalmic disease” (Allergan, Inc., priority 2006, dated 2011).

The test system of the assay is diabetic retinopathy. Briefly: Treatment of a patient with proliferative (left eye) and non-proliferative (right eye) diabetic retinopathy. It is filed as in vivo, human. The conditions noted are these: Example 10. How it is done:
A person complains of vision loss in the left eye. The patient reports an onset of Type II diabetes, and has been under treatment with metformin hydrochloride for 10 years.
The patient is given an intravitreal injection comprising 150 μl of a solution of hyaluronic acid in which biodegradable PLGA microspheres (mean particle diameter of about 40 μm; lactide to glycolide ratio 75:25) are suspended. See U.S. patent application Ser. No. 11/368,845, filed Mar. 6, 2006, incorporated by reference herein in its entirety. Approximate weight of microspheres per dose was 20 mg. In addition to the PLGA polymer, the microspheres comprise approximately 5% by weight of an SDF-1α derivative that comprises a disulfide-linked dimer comprising two identical peptides, with each peptide comprising amino acids 1-9 of SDF-1 (these positions correspond to amino acids 22-47 of SEQ ID NO: 4, 5, and 6) with glycine substituted for proline in each position 2 (corresponding to position 23 of SEQ ID NO: 4, 5, and 6).
The patient's visual acuity (and retinal condition under dilation) are monitored every two weeks for 8 weeks.
The patient of Example 9 is treated by subconjunctival injection in each eye (100 μl volume in hyaluronic acid solution) of a single fibrous monolithic PLGA intraocular implant (approximately 120 μg; diameter approximately 3 mm) comprising 50% by weight of a CXCR4-inhibitory compound: N-[(S)-1-(1-naphthyl)ethyl]-5-(2-methylbenzyl)amino-2-(S)-[4-[N-(imidazole-2-ylmethyl)aminomethyl]benzoyl]aminopentanoylamide (see Yamzaki et al., U.S. Publication No. 2004/0254221.
After 8 weeks visual acuity is tested, and has improved by 2 lines in each eye.
The patient of Example 9 is administered an intravitreal injection in each eye comprising 150 μl of a solution of hyaluronic acid in which biodegradable PLGA microspheres (mean particle diameter of about 40 μm; lactide to glycolide ratio 75:25) are suspended. Approximate weight of microspheres per dose was 20 mg. […]

`Cc1ccccc1CNCCC[C@H](NC(=O)c1ccc(CNCc2ncc[nH]2)cc1)C(=O)N[C@@H](C)c1cccc2ccccc12` [N-[(S)-1-(1-naphthyl)ethyl]-5-(2-methylbenzyl)amino-2-(S)-[4-[N-(imidazole-2-ylmethyl)aminomethyl]benzoyl]aminopentanoylamide]: for the setting “after 6 weeks”, the “fluorescein angiography: leakage of blood into the retina” value is “does not reveal any leakage of blood into the retina”. In addition, where the note is “after 8 weeks”, the “improvement in visual acuity, each eye” value came out at 2 lines. The macular edema result (subconjunctival PLGA implant, 50% by weight compound, each eye, after 6 weeks) was “barely observable”.
